Measured values taken from article PMC12609950, “Evaluation of ^161Tb-Labeled Diphosphonates as Potential Bone-Targeting Agents” (International Journal of Molecular Sciences, 2025).
Values belong to the molecule of their own block, whether it stands above or below them.

Assays:
[1] = Cyclic voltammetry of Tb, HEDP and ZOL; settings: glassy carbon electrode, Ag/AgCl reference, carbonate buffer pH 9
[2] = Radioelectrophoresis (net charge of complexes); type: physicochemical; settings: 0.05 M phosphate buffer pH 7.4, 250 V, 1 h
Description: Radioelectrophoresis was employed to determine the net charge of the ^161Tb-labeled diphosphonate complexes and to confirm successful radiolabeling. For each sample, 5 μL of the radiolabeled complex or a control solution of ^161TbCl3 was applied to the center of Whatman 3MM chromatography paper strips (2 × 25 cm), which had been pre-soaked in 0.05 M phosphate buffer (pH 7.4). The strips were placed in an electrophoresis chamber filled with the same phosphate buffer, and electrophoresis was carried out at 250 V for 1 h using a Gelman Instrument electrophoresis system (Gelman Instrument Co., Ann Arbor, MI, USA). After radioelectrophoresis, each strip was dried and scanned using a TLC scanner. This method allowed the determination of the migration pattern of the radiolabeled species compared to free ^161Tb^3+, providing information about the charge and integrity of the formed complexes.

[3] = Biodistribution in healthy Wistar rats; type: in vivo; settings: i.v.
Description: All animal experiments were conducted using healthy Wistar rats weighing 100–120 g. The rats were obtained from the Military Medical Academy (Belgrade, Serbia). All procedures involving animals were approved by the Ethical Committee of the Vinča Institute of Nuclear Sciences (permission No. 002225501 2025, issued on 20 May 2025) and were performed by the Directive 2010/63/EU of the European Parliament and of the Council of 22 September 2010 [50] on the protection of animals used for scientific purposes, as well as national animal welfare laws.
A total of 0.74 MBq of each ^161Tb-labeled compound (^161Tb-HEDP and ^161Tb-ZOL) and free ^161TbCl3 (at pH 7.5 and pH 4.5) was prepared in a final injection volume of 0.1 mL. Physiological saline was added to adjust the concentration to 10 µg of radiolabeled complex per 0.1 mL. Each formulation was administered intravenously via the lateral tail vein.
Animals (n = 3 per time point) were sacrificed at predetermined intervals: 2 h, 24 h, and 7 d post-injection, depending on the study group. Euthanasia was performed by intraperitoneal injection of a ketamine/xylazine overdose. Immediately after sacrifice, major organs and tissues (heart, lungs, liver, spleen, kidneys, stomach, intestines, muscle, and femur) were collected, weighed, and assessed for radioactivity using a gamma counter. The biodistribution of radiolabeled compounds was expressed as the percentage of the injected dose per gram of tissue (%ID/g), calculated by comparing the sample activity to that of the standard representing 100% of the injected dose. All data are presented as mean ± standard deviation (SD).

[4] = 2 h post-injection (initial), injected at pH 4.5
[5] = 2 h post-injection, injected at pH 4.5
[6] = 2 h post-injection, injected at pH 7.5
[7] = 7 d post-injection, injected at pH 7.5

Second Oxidation Pot. [1]: 1.45 V
Second Reduction Pot. [1]: −0.54 V
Compound: CC(O)(P(=O)(O)O)P(=O)(O)O [HEDP, 1-Hydroxyethylidene-1,1-diphosphonic acid]

Second Oxidation Pot. [1]: 1.39 V
Second Reduction Pot. [1]: −0.56 V
Compound: O.O.O.O.O.O.[Cl-].[Cl-].[Cl-].[Tb+3] [Tb, terbium(III) chloride hexahydrate]

First Oxidation Pot. [1]: 0.93 V
First Reduction Pot. [1]: 0.41 V
Second Oxidation Pot. [1]: 1.27 V
Second Reduction Pot. [1]: −0.54 V
Compound: O=P(O)(O)C(O)(Cn1ccnc1)P(=O)(O)O [ZOL, 1-hydroxy-2-(1H-imidazol-1-yl)ethane-1,1-diyldiphosphonic acid]

Migration / net charge in radioelectrophoresis [2]: remained at the point of application
Liver [3, 4]: 1.88 ± 0.31 %ID/g
Spleen uptake [3, 4]: 0.37 ± 0.12 %ID/g
Blood [3, 5]: 0.02 ± 0.01 %ID/g
Bone uptake [3, 5]: 7.31 ± 0.32 %ID/g
Bone-to-kidney ratio [3, 5]: 3.97
Bone-to-liver ratio [3, 5]: 3.89
Muscle [3, 5]: 0.08 ± 0.05 %ID/g
Other tissues [3, 5]: Minimal uptake
Kidney ([3]; 2 h post-injection, injected at pH 4.5, listed as 161TbCl3 (pH 4.5)): 1.84 ± 0.07 %ID/g
Bone uptake [3, 6]: 6.53 ± 0.22 %ID/g
Kidney uptake [3, 6]: 1.03 ± 0.06 %ID/g
Liver uptake [3, 6]: 6.99 ± 0.21 %ID/g
Spleen uptake [3, 6]: 4.88 ± 0.15 %ID/g
Bone uptake ([3]; 24 h post-injection, injected at pH 7.5): 6.61 ± 0.14 %ID/g
Bone uptake ([3]; 7 d post-injection, injected at pH 4.5): 7.18 ± 0.12 %ID/g
Bone uptake [3, 7]: 6.68 ± 0.29 %ID/g
Kidney uptake [3, 7]: 0.60 ± 0.02 %ID/g
Liver uptake [3, 7]: 2.33 ± 0.02 %ID/g
Spleen uptake [3, 7]: 0.79 ± 0.02 %ID/g
Compound: [161Tb+3].[Cl-].[Cl-].[Cl-] [^161TbCl3]
